From PubChem BioAssay AID1963827 (Molecular Pharmacology Branch, DTP, NCI, 2024)

Test system: 994946-033-R-J1-PDC complex spheroid viability
Assay: Anticancer human tumor 994946-033-R-J1-PDC patient-derived melanoma cell line growth inhibition [POLQ]
Conditions: for IC50: curve of first compound; for viability, T/C: stronger effect = lower value
Method in brief: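 Patient-derived tumour cells were co-cultured with HUVEC and mesenchymal stem cells as multicellular spheroids at 37 °C. They were treated with POLQ inhibitors (novobiocin, ART-558, RP6685) alone or combined with other agents. Top concentrations were at or near clinical Cmax (otherwise 10 microM; SN-38 at 1 microM), decreasing in half-log steps.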

[1] = second compound 0.0316 µM, first compound 0.0316 µM
[2] = second compound 0.0316 µM, first compound 0.1 µM
[3] = second compound 0.0316 µM, first compound 0.316 µM
[4] = second compound 0.0316 µM, first compound 1 µM
[5] = second compound 0.0316 µM, first compound 3.16 µM
[6] = second compound 0.0316 µM, first compound 10 µM
[7] = second compound 0.1 µM, first compound 0.0316 µM
[8] = second compound 0.1 µM, first compound 0.1 µM
[9] = second compound 0.1 µM, first compound 0.316 µM
[10] = second compound 0.1 µM, first compound 1 µM
[11] = second compound 0.1 µM, first compound 3.16 µM
[12] = second compound 0.1 µM, first compound 10 µM
[13] = second compound 0.316 µM, first compound 0.0316 µM
[14] = second compound 0.316 µM, first compound 0.1 µM
[15] = second compound 0.316 µM, first compound 0.316 µM
[16] = second compound 0.316 µM, first compound 1 µM
[17] = second compound 0.316 µM, first compound 3.16 µM
[18] = second compound 0.316 µM, first compound 10 µM
[19] = second compound 1 µM, first compound 0.0316 µM
[20] = second compound 1 µM, first compound 0.1 µM
[21] = second compound 1 µM, first compound 0.316 µM
[22] = second compound 1 µM, first compound 1 µM
[23] = second compound 1 µM, first compound 3.16 µM
[24] = second compound 1 µM, first compound 10 µM
[25] = second compound 3.16 µM, first compound 0.0316 µM
[26] = second compound 3.16 µM, first compound 0.1 µM
[27] = second compound 3.16 µM, first compound 0.316 µM
[28] = second compound 3.16 µM, first compound 1 µM
[29] = second compound 3.16 µM, first compound 3.16 µM
[30] = second compound 3.16 µM, first compound 10 µM
[31] = second compound 10 µM, first compound 0.0316 µM
[32] = second compound 10 µM, first compound 0.1 µM
[33] = second compound 10 µM, first compound 0.316 µM
[34] = second compound 10 µM, first compound 1 µM
[35] = second compound 10 µM, first compound 3.16 µM
[36] = second compound 10 µM, first compound 10 µM
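Also: spheroids exposed to drugs for 7 days.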
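For viability, T/C in this document: 100% = DMSO vehicle treated spheroids.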

`O=C(c1cc(Cc2n[nH]c(=O)c3ccccc23)ccc1F)N1CCN(C(=O)C2CC2)CC1` + COC1C(OC(N)=O)C(O)C(Oc2ccc3c(O)c(NC(=O)c4ccc(O)c(CC=C(C)C)c4)c(=O)oc3c2C)OC1(C)C was tested, and the IC50 (second compound 0.0316 µM) was 4.75 µM, the IC50 (second compound 0.1 µM) was 4.62 µM and the IC50 (second compound 0.316 µM) was 4.96 µM. It also gave an IC50 (second compound 1 µM) of 4.03 µM, an IC50 (second compound 3.16 µM) of 4.79 µM and an IC50 (second compound 10 µM) of 4.21 µM. It also gave a viability, T/C [1] of 56.5%, a viability, T/C [2] of 91.1% and a viability, T/C [3] of 100%. The viability, T/C [4] was 87.1%, the viability, T/C [5] was 57.7% and the viability, T/C [6] was 35.9%. For the same compound, the viability, T/C [7] was 110%, the viability, T/C [8] was 81.5% and the viability, T/C [9] was 87.1%. It also gave a viability, T/C [10] of 73.5%, a viability, T/C [11] of 72.4% and a viability, T/C [12] of 22.2%. For the same compound, the viability, T/C [13] was 93.2%, the viability, T/C [14] was 82.2% and the viability, T/C [15] was 86.4%. The viability, T/C [16] was 67.7%, the viability, T/C [17] was 69.8% and the viability, T/C [18] was 28.9%. For the same compound, the viability, T/C [19] was 99.1%, the viability, T/C [20] was 84.5% and the viability, T/C [21] was 90.2%. The viability, T/C [22] was 69.1%, the viability, T/C [23] was 58.1% and the viability, T/C [24] was 28.1%. It also gave a viability, T/C [25] of 84.7%, a viability, T/C [26] of 83.2% and a viability, T/C [27] of 88.4%. For the same compound, the viability, T/C [28] was 76.6%, the viability, T/C [29] was 60.4% and the viability, T/C [30] was 32.2%. It also gave a viability, T/C [31] of 95.5%, a viability, T/C [32] of 79.2% and a viability, T/C [33] of 86%. The viability, T/C [34] was 69.9%, the viability, T/C [35] was 60.8% and the viability, T/C [36] was 27.1%.
With `CCc1cc2c(N3CCc4c(cc(Cn5ccnc5)cc4-c4cn(C)nc4C(F)(F)F)C3=O)cc(C)nc2c(OC)n1` + Nc1ccc(C#CCN(C(=O)Cc2ncc(C(F)(F)F)cc2C(F)(F)F)c2ccc(F)cc2)nn1 the IC50 (second compound 0.0316 µM) was 8.52 µM, the IC50 (second compound 0.1 µM) was greater than 10 µM and the IC50 (second compound 0.316 µM) was greater than 10 µM. It also gave an IC50 (second compound 1 µM) greater than 10 µM, an IC50 (second compound 3.16 µM) greater than 10 µM and an IC50 (second compound 10 µM) greater than 10 µM. It also gave a viability, T/C [1] of 81.9%, a viability, T/C [2] of 107% and a viability, T/C [3] of 72.6%. It also gave a viability, T/C [4] of 68.3%, a viability, T/C [5] of 103% and a viability, T/C [6] of 44%. It also gave a viability, T/C [7] of 78.7%, a viability, T/C [8] of 102% and a viability, T/C [9] of 94.4%. The viability, T/C [10] was 93%, the viability, T/C [11] was 71.2% and the viability, T/C [12] was 54.3%. The viability, T/C [13] was 73%, the viability, T/C [14] was 79.8% and the viability, T/C [15] was 75.5%. The viability, T/C [16] was 87%, the viability, T/C [17] was 64% and the viability, T/C [18] was 89.1%. For the same compound, the viability, T/C [19] was 98.6%, the viability, T/C [20] was 71.5% and the viability, T/C [21] was 89.5%. It also gave a viability, T/C [22] of 51.8%, a viability, T/C [23] of 78.5% and a viability, T/C [24] of 72.2%. The viability, T/C [25] was 93.4%, the viability, T/C [26] was 84.3% and the viability, T/C [27] was 81.9%. The viability, T/C [28] was 65.7%, the viability, T/C [29] was 86.5% and the viability, T/C [30] was 65.5%. It also gave a viability, T/C [31] of 107%, a viability, T/C [32] of 96.1% and a viability, T/C [33] of 106%. It also gave a viability, T/C [34] of 89.2%, a viability, T/C [35] of 69.9% and a viability, T/C [36] of 49.9%.
`O=C(Nc1ccc(O)c(NS(=O)(=O)c2ccc(F)cc2)c1)c1ccc(-c2ccccc2)cc1` + Nc1ccc(C#CCN(C(=O)Cc2ncc(C(F)(F)F)cc2C(F)(F)F)c2ccc(F)cc2)nn1 gave an IC50 (second compound 0.0316 µM) of 7.1 µM, an IC50 (second compound 0.1 µM) of 4.79 µM and an IC50 (second compound 0.316 µM) of 7.55 µM. For the same compound, the IC50 (second compound 1 µM) was 8.49 µM, the IC50 (second compound 3.16 µM) was 9.09 µM and the IC50 (second compound 10 µM) was greater than 10 µM. For the same compound, the viability, T/C [1] was 79.4%, the viability, T/C [2] was 95.7% and the viability, T/C [3] was 92.9%. The viability, T/C [4] was 77.1%, the viability, T/C [5] was 84.1% and the viability, T/C [6] was 35.6%. It also gave a viability, T/C [7] of 104%, a viability, T/C [8] of 94.1% and a viability, T/C [9] of 100%. For the same compound, the viability, T/C [10] was 111%, the viability, T/C [11] was 59.8% and the viability, T/C [12] was 32.7%. It also gave a viability, T/C [13] of 88.2%, a viability, T/C [14] of 134% and a viability, T/C [15] of 97.6%. It also gave a viability, T/C [16] of 89.9%, a viability, T/C [17] of 93.1% and a viability, T/C [18] of 36.7%. It also gave a viability, T/C [19] of 98.1%, a viability, T/C [20] of 74.2% and a viability, T/C [21] of 133%. The viability, T/C [22] was 117%, the viability, T/C [23] was 92.8% and the viability, T/C [24] was 42.9%. It also gave a viability, T/C [25] of 114%, a viability, T/C [26] of 84.7% and a viability, T/C [27] of 98.4%. It also gave a viability, T/C [28] of 94.4%, a viability, T/C [29] of 67.4% and a viability, T/C [30] of 48.8%. It also gave a viability, T/C [31] of 78.7%, a viability, T/C [32] of 78.4% and a viability, T/C [33] of 79%. For the same compound, the viability, T/C [34] was 96.5%, the viability, T/C [35] was 76% and the viability, T/C [36] was 53.1%.
